Data reported in patent US20040034001A1, “Treatment of hypertension in women receiving hormone replacement therapy” (Schering AG, priority 2002, published 2004).

Test system: hypertensive postmenopausal women
Assay: Post hoc analysis of blood pressure in women with elevated BP at baseline, multicenter 1-year endometrium study, no ACE inhibitor
Type: in vivo, human
Settings: after 11 weeks; subset with baseline systolic BP>=140 mm Hg and or diastolic BP>=90 mm Hg
Protocol: Administration of DRSP/E2 to Hypertensive Postmenopausal Women not being Treated with an ACE Inhibitor.
In a multicenter, double-blind randomized study examining the effect on the endometrium of 1142 postmenopausal women treated for 1 year with 1 of 4 doses of DRSP (0.5,1,2, and 3 mg) compared with E2 alone, mean systolic and diastolic blood pressure decreased from baseline for all treatment groups.

`C[C@]12CC[C@@H]3c4ccc(O)cc4CC[C@H]3[C@@H]1CC[C@@H]2O` [E2, 17-β-estradiol] was tested, and the “mean decrease in systolic blood pressure” value was −3.7 mm Hg.
